The target in one experiment is IRAK4 (Homo sapiens (Human), UniProt Q9NWZ3). As to the kind of experiment: IRAK4 Biochemical Assay (TR-FRET/HTRF). The settings on record: IRAK4 enzyme 0.75 nM, 500 μM ATP, 2 μM STK1 peptide, 120 min. The procedure, abridged: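 Recombinant IRAK4 (0.75 nM) with 2 µM STK1 peptide and 500 µM ATP in pH 7.0 HEPES/Mg buffer; compound preincubated 15 min with enzyme and peptide, then 120 min reaction at room temperature. HTRF readout: cryptate anti-phospho-peptide antibody, 665/615 nm ratio; % inhibition against no-inhibitor and saturating-staurosporine controls.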
Sequence of IRAK4 (Q9NWZ3 whole entry): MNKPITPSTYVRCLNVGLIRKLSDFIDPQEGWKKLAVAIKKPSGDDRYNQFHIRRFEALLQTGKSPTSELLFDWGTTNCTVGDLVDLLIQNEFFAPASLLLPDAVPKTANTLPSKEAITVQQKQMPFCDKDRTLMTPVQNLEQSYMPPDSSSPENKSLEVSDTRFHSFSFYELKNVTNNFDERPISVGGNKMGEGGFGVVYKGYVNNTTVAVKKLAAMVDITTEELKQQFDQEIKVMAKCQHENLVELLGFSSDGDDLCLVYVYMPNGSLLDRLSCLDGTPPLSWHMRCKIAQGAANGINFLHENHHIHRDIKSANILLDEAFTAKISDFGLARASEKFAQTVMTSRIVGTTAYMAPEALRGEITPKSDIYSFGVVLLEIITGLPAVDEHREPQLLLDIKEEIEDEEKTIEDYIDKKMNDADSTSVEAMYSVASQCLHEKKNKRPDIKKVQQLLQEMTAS

The subject of a further experiment is TNFα. As to the kind of experiment: IRAK4 Monocyte TNFα Cell Based Assay. The settings on record: Monocyte; cryopreserved human monocytes, 50 pg/ml LPS, compound 1 hour pre-treatment, 4 hours stimulation, TNFα by TR-FRET. The procedure, abridged: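 Monocytes at 5,000 cells/well were pre-treated with compound for 1 h at 37 °C (0.1% DMSO final), then stimulated with 50 pg/ml LPS for 4 h. Secreted TNFα in supernatant was measured by TR-FRET (665/615 ratio), expressed as % control relative to unstimulated and stimulated cells.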

As to `Cn1nnc([C@H]2CC[C@H](Nc3cc(-c4ccc5cc(C#N)cnn45)ncc3C(=O)NC[C@@H](F)C(C)(C)O)CC2)n1` [Compound 15, 6-(3-cyanopyrrolo[1,2-b]pyridazin-7-yl)-N-((R)-2-fluoro-3-hydroxy-3-methylbutyl)-4-(((1r,4R)-4-(2-methyl-2H-tetrazol-5-yl)cyclohexyl)amino)nicotinamide], at IRAK4, the IC50 was under 0.001 µM. Moreover, in the experiment on TNFα, the half-maximal effective concentration (EC50) came to 0.035 µM.
`Cc1nn(C(F)F)cc1C1CCC(Nc2cc(-c3ccc4cc(C#N)cnn34)ncc2C(=O)NC[C@@H](F)C(C)(C)O)CC1` (stereo partly drawn) [Compound 9, (R)-6-(3-cyanopyrrolo[1,2-b]pyridazin-7-yl)-4-((4-(1-(difluoromethyl)-3-methyl-1H-pyrazol-4-yl)cyclohexyl)amino)-N-(2-fluoro-3-hydroxy-3-methylbutyl)nicotinamide] returned an IC50 against IRAK4 of 0.007 µM. In addition, in the experiment on TNFα, the concentration giving a half-maximal response (EC50) is 0.114 µM.
For the molecule `CC(C)(O)[C@H](F)CNC(=O)c1cnc(-c2ccc3cc(C#N)cnn23)cc1NC12CCC(N3CCC(F)(F)CC3)(CC1)CC2` [Compound 68, (R)-6-(3-cyanopyrrolo[1,2-b]pyridazin-7-yl)-4-((4-(4,4-difluoropiperidin-1-yl)bicyclo[2.2.2]octan-1-yl)amino)-N-(2-fluoro-3-hydroxy-3-methylbutyl)nicotinamide], on IRAK4, the IC50 was under 0.001 µM. Besides, the half-maximal effective concentration (EC50) in the experiment with TNFα is 0.038 µM.
For `CC(C)(O)[C@H](F)CNC(=O)c1cnc(-c2ccc3cc(C#N)cnn23)cc1N[C@H]1CC[C@H](c2cnn(C(F)(F)F)c2)CC1` [Compound 4, 6-(3-cyanopyrrolo[1,2-b]pyridazin-7-yl)-N-((R)-2-fluoro-3-hydroxy-3-methylbutyl)-4-(((1r,4R)-4-(1-(trifluoromethyl)-1H-pyrazol-4-yl)cyclohexyl)amino)nicotinamide] the same measures were 0.003 µM and 0.037 µM.
In turn, `CC(C)(O)[C@H](F)CNC(=O)c1cnc(-c2ccc3cc(C#N)cnn23)cc1N[C@H]1CC[C@H](c2nnc(C(F)F)s2)CC1` [Compound 53, 6-(3-cyanopyrrolo[1,2-b]pyridazin-7-yl)-4-(((1r,4R)-4-(5-(difluoromethyl)-1,3,4-thiadiazol-2-yl)cyclohexyl)amino)-N-((R)-2-fluoro-3-hydroxy-3-methylbutyl)nicotinamide] came in with an IC50 on IRAK4 of under 0.001 µM. Moreover, the half-maximal effective concentration (EC50) in the experiment on TNFα was found to be 0.027 µM.

For the origin of these results see US11572362B2, “Pyrrolo[1,2-b]pyridazine derivatives” (Gilead Sciences, Inc., priority 2018, dated 2023).
